PubChem BioAssay AID2060599 (Molecular Pharmacology Branch, DTP, NCI, 2025)
Several values for one entry are separate records, joined by “and”; a condition that tells them apart may be missing. Equal entries are not always repeated. Each block holds one molecule with its values, some of them ahead of it.

Test system: 817829-284-R-J1-PDC complex spheroids, viability
Experiment: Anticancer human tumor 817829-284-R-J1-PDC patient-derived colon adenocarcinoma cell line growth inhibition [CLK]
Details: for viability, T/C: stronger effect = lower value
Method in brief: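 Multi-cell-type spheroids combined patient-derived tumor cells with HUVEC endothelial cells and human mesenchymal stem cells. Paired agents were dosed in half-log steps down from about clinical Cmax, or from 10 microM where Cmax was unknown.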

[1] = curve of first compound, second compound 0.0316 µM
[2] = curve of first compound, second compound 0.1 µM
[3] = curve of first compound, second compound 0.316 µM
[4] = curve of first compound, second compound 1 µM
[5] = curve of first compound, second compound 3.16 µM
[6] = curve of first compound, second compound 10 µM
[7] = second compound 0.0316 µM, first compound 0.0316 µM
[8] = second compound 0.0316 µM, first compound 0.1 µM
[9] = second compound 0.0316 µM, first compound 0.316 µM
[10] = second compound 0.0316 µM, first compound 1 µM
[11] = second compound 0.1 µM, first compound 0.0316 µM
[12] = second compound 0.1 µM, first compound 0.1 µM
[13] = second compound 0.1 µM, first compound 0.316 µM
[14] = second compound 0.1 µM, first compound 1 µM
[15] = second compound 0.316 µM, first compound 0.0316 µM
[16] = second compound 0.316 µM, first compound 0.1 µM
[17] = second compound 0.316 µM, first compound 0.316 µM
[18] = second compound 0.316 µM, first compound 1 µM
[19] = second compound 1 µM, first compound 0.0316 µM
[20] = second compound 1 µM, first compound 0.1 µM
[21] = second compound 1 µM, first compound 0.316 µM
[22] = second compound 1 µM, first compound 1 µM
[23] = second compound 3.16 µM, first compound 0.0316 µM
[24] = second compound 3.16 µM, first compound 0.1 µM
[25] = second compound 3.16 µM, first compound 0.316 µM
[26] = second compound 3.16 µM, first compound 1 µM
[27] = second compound 10 µM, first compound 0.0316 µM
[28] = second compound 10 µM, first compound 0.1 µM
[29] = second compound 10 µM, first compound 0.316 µM
[30] = second compound 10 µM, first compound 1 µM
[31] = second compound 0.0316 µM, first compound 0.00316 µM
[32] = second compound 0.0316 µM, first compound 0.01 µM
[33] = second compound 0.1 µM, first compound 0.00316 µM
[34] = second compound 0.1 µM, first compound 0.01 µM
[35] = second compound 0.316 µM, first compound 0.00316 µM
[36] = second compound 0.316 µM, first compound 0.01 µM
[37] = second compound 1 µM, first compound 0.00316 µM
[38] = second compound 1 µM, first compound 0.01 µM
[39] = second compound 3.16 µM, first compound 0.00316 µM
[40] = second compound 3.16 µM, first compound 0.01 µM
[41] = second compound 10 µM, first compound 0.00316 µM
[42] = second compound 10 µM, first compound 0.01 µM
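Note: spheroids exposed to the agents for seven days before readout.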

Structure (SMILES): CC(C)CC(NC(=O)C(Cc1ccccc1)NC(=O)c1cnccn1)B(O)O (stereo not given) + CNC(=O)c1ccc(Nc2nc(OC3CCCC3)c3c(-c4ccc5nc(C)oc5c4)c[nH]c3n2)c(OC)c1
IC50 [1]: < 0.949 nM
IC50 [2]: < 0.949 nM
IC50 [3]: < 0.949 nM
IC50 [4]: < 0.949 nM
IC50 [5]: < 0.949 nM
IC50 [6]: < 0.949 nM
viability, T/C (second compound 0.0316 µM, first compound 0.000949 µM): 31.9%
viability, T/C (second compound 0.0316 µM, first compound 0.003 µM): 0.67%
viability, T/C (second compound 0.0316 µM, first compound 0.00949 µM): 0.14%
viability, T/C (second compound 0.0316 µM, first compound 0.03 µM): 0.16%
viability, T/C (second compound 0.0316 µM, first compound 0.0949 µM): 0.14%
viability, T/C (second compound 0.0316 µM, first compound 0.3 µM): 0.09%
viability, T/C (second compound 0.1 µM, first compound 0.000949 µM): 25%
viability, T/C (second compound 0.1 µM, first compound 0.003 µM): 0.93%
viability, T/C (second compound 0.1 µM, first compound 0.00949 µM): 0.22%
viability, T/C (second compound 0.1 µM, first compound 0.03 µM): 0.17%
viability, T/C (second compound 0.1 µM, first compound 0.0949 µM): 0.11%
viability, T/C (second compound 0.1 µM, first compound 0.3 µM): 0.1%
viability, T/C (second compound 0.316 µM, first compound 0.000949 µM): 23%
viability, T/C (second compound 0.316 µM, first compound 0.003 µM): 0.45%
viability, T/C (second compound 0.316 µM, first compound 0.00949 µM): 0.13%
viability, T/C (second compound 0.316 µM, first compound 0.03 µM): 0.6%
viability, T/C (second compound 0.316 µM, first compound 0.0949 µM): 0.08%
viability, T/C (second compound 0.316 µM, first compound 0.3 µM): 0.13%
viability, T/C (second compound 1 µM, first compound 0.000949 µM): 14.7%
viability, T/C (second compound 1 µM, first compound 0.003 µM): 0.18%
viability, T/C (second compound 1 µM, first compound 0.00949 µM): 0.14%
viability, T/C (second compound 1 µM, first compound 0.03 µM): 0.09%
viability, T/C (second compound 1 µM, first compound 0.0949 µM): 0.13%
viability, T/C (second compound 1 µM, first compound 0.3 µM): 0.16%
viability, T/C (second compound 3.16 µM, first compound 0.000949 µM): 12.5%
viability, T/C (second compound 3.16 µM, first compound 0.003 µM): 0.39%
viability, T/C (second compound 3.16 µM, first compound 0.00949 µM): 0.14%
viability, T/C (second compound 3.16 µM, first compound 0.03 µM): 0.1%
viability, T/C (second compound 3.16 µM, first compound 0.0949 µM): 0.22%
viability, T/C (second compound 3.16 µM, first compound 0.3 µM): 0.09%
viability, T/C (second compound 10 µM, first compound 0.000949 µM): 11.3%
viability, T/C (second compound 10 µM, first compound 0.003 µM): 0.15%
viability, T/C (second compound 10 µM, first compound 0.00949 µM): 0.16%
viability, T/C (second compound 10 µM, first compound 0.03 µM): 0.14%
viability, T/C (second compound 10 µM, first compound 0.0949 µM): 0.23%
viability, T/C (second compound 10 µM, first compound 0.3 µM): 0.11%

Structure (SMILES): Nc1ccccc1NC(=O)c1ccc(CNC(=O)OCc2cccnc2)cc1 + CN1CCN(c2cc(C(=O)Nc3cc4cc(-c5cnn(C)c5)ccc4cn3)ccn2)CC1
IC50 [1]: 223 nM
IC50 [2]: < 31.6 nM
IC50 [3]: < 31.6 nM
IC50 [4]: < 31.6 nM
IC50 [5]: < 31.6 nM
IC50 [6]: < 31.6 nM
viability, T/C [7]: 61.1%
viability, T/C [8]: 70.6%
viability, T/C [9]: 39.5%
viability, T/C [10]: 21.9%
viability, T/C (second compound 0.0316 µM, first compound 3.16 µM): 3.59%
viability, T/C (second compound 0.0316 µM, first compound 10 µM): 0.06%
viability, T/C [11]: 15.1%
viability, T/C [12]: 14.2%
viability, T/C [13]: 13.4%
viability, T/C [14]: 5.61%
viability, T/C (second compound 0.1 µM, first compound 3.16 µM): 0.84%
viability, T/C (second compound 0.1 µM, first compound 10 µM): 0.03%
viability, T/C [15]: 1.55%
viability, T/C [16]: 1.54%
viability, T/C [17]: 1.41%
viability, T/C [18]: 0.56%
viability, T/C (second compound 0.316 µM, first compound 3.16 µM): 0.03%
viability, T/C (second compound 0.316 µM, first compound 10 µM): 0.03%
viability, T/C [19]: 0.11%
viability, T/C [20]: 0.14%
viability, T/C [21]: 0.11%
viability, T/C [22]: 0.1%
viability, T/C (second compound 1 µM, first compound 3.16 µM): 0.05%
viability, T/C (second compound 1 µM, first compound 10 µM): 0.06%
viability, T/C [23]: 0.1%
viability, T/C [24]: 0.12%
viability, T/C [25]: 0.15%
viability, T/C [26]: 0.15%
viability, T/C (second compound 3.16 µM, first compound 3.16 µM): 0.16%
viability, T/C (second compound 3.16 µM, first compound 10 µM): 0.22%
viability, T/C [27]: 0.04%
viability, T/C [28]: 0.07%
viability, T/C [29]: 0.1%
viability, T/C [30]: 0.3%
viability, T/C (second compound 10 µM, first compound 3.16 µM): 0.1%
viability, T/C (second compound 10 µM, first compound 10 µM): 0.1%

Structure (SMILES): CCN1CCN(Cc2ccc(Nc3ncc(F)c(-c4cc(F)c5nc(C)n(C(C)C)c5c4)n3)nc2)CC1 + CN1CCN(c2cc(C(=O)Nc3cc4cc(-c5cnn(C)c5)ccc4cn3)ccn2)CC1
IC50 [1]: 21.1 nM
IC50 [2]: < 3.16 nM
IC50 [3]: < 3.16 nM
IC50 [4]: < 3.16 nM
IC50 [5]: < 3.16 nM
IC50 [6]: < 3.16 nM
viability, T/C [31]: 49.6%
viability, T/C [32]: 64.4%
viability, T/C [7]: 46.2%
viability, T/C [8]: 36.6%
viability, T/C [9]: 36.9%
viability, T/C [10]: 29.2%
viability, T/C [33]: 17.4%
viability, T/C [34]: 16.2%
viability, T/C [11]: 15.4%
viability, T/C [12]: 20.7%
viability, T/C [13]: 18.7%
viability, T/C [14]: 11.8%
viability, T/C [35]: 1.34%
viability, T/C [36]: 1.6%
viability, T/C [15]: 1.6%
viability, T/C [16]: 1.6%
viability, T/C [17]: 2.31%
viability, T/C [18]: 0.61%
viability, T/C [37]: 0.17%
viability, T/C [38]: 0.12%
viability, T/C [19]: 0.08%
viability, T/C [20]: 0.08%
viability, T/C [21]: 0.1%
viability, T/C [22]: 0.19%
viability, T/C [39]: 0.13%
viability, T/C [40]: 0.14%
viability, T/C [23]: 0.12%
viability, T/C [24]: 0.15%
viability, T/C [25]: 0.12%
viability, T/C [26]: 0.1%
viability, T/C [41]: 0.09%
viability, T/C [42]: 0.1%
viability, T/C [27]: 0.08%
viability, T/C [28]: 0.09%
viability, T/C [29]: 0.11%
viability, T/C [30]: 0.08%

Continued, in another order:

IC50 (curve of compound): > 10000 nM
Structure (SMILES): C=CC(=O)N1CCN(c2nc(=O)n(-c3c(C)ccnc3C(C)C)c3nc(-c4c(O)cccc4F)c(F)cc23)C(C)C1 (stereo not given)
viability, T/C (compound 0.0316 µM): 101% and 136%
viability, T/C (compound 0.1 µM): 97.2% and 101%
viability, T/C (compound 0.316 µM): 101% and 92.9%
viability, T/C (compound 1 µM): 100%
viability, T/C (compound 3.16 µM): 101%
viability, T/C (compound 10 µM): 57% and 87.9%

IC50 [1]: 33.8 nM
IC50 [2]: < 3.16 nM
IC50 [3]: < 3.16 nM
IC50 [4]: < 3.16 nM
IC50 [5]: < 3.16 nM
IC50 [6]: < 3.16 nM
Structure (SMILES): COc1c(OCCCN2CCOCC2)ccc2c3n(c(=NC(=O)c4cnc(N)nc4)nc12)CCN3 + CNC(=O)c1ccc(Nc2nc(OC3CCCC3)c3c(-c4ccc5nc(C)oc5c4)c[nH]c3n2)c(OC)c1
viability, T/C [31]: 39.8%
viability, T/C [32]: 41.3%
viability, T/C [7]: 74.9%
viability, T/C [8]: 19.1%
viability, T/C [9]: 4.03%
viability, T/C [10]: 1.87%
viability, T/C [33]: 24%
viability, T/C [34]: 21%
viability, T/C [11]: 15.8%
viability, T/C [12]: 9.46%
viability, T/C [13]: 3.69%
viability, T/C [14]: 1.76%
viability, T/C [35]: 20.6%
viability, T/C [36]: 22%
viability, T/C [15]: 18.4%
viability, T/C [16]: 9.72%
viability, T/C [17]: 3.22%
viability, T/C [18]: 2.08%
viability, T/C [37]: 31.5%
viability, T/C [38]: 20.5%
viability, T/C [19]: 11.6%
viability, T/C [20]: 9.58%
viability, T/C [21]: 2.07%
viability, T/C [22]: 1.92%
viability, T/C [39]: 26.7%
viability, T/C [40]: 24%
viability, T/C [23]: 11.9%
viability, T/C [24]: 5.77%
viability, T/C [25]: 2.1%
viability, T/C [26]: 1.82%
viability, T/C [41]: 19.7%
viability, T/C [42]: 16%
viability, T/C [27]: 19.1%
viability, T/C [28]: 6.5%
viability, T/C [29]: 6.46%
viability, T/C [30]: 1.67%
